Our source for the IC50 values is patent US9216173B2, “2-Pyridyl carboxamide-containing spleen tyrosine kinase (SYK) inhibitors” (Merck Sharp & Dohme Corp., priority 2011, dated 2015).

Bounds are passed on as bounds.

The term IC50 denotes the concentration needed to halve the response being measured.

For the first experiment, the target named is T1, recombinant human GST-SYK (Homo sapiens, UniProt P43405).
T1 construct: purchased Carna Biosciences 08-176
Description: Homogeneous Time-Resolved Fluorescence (HTRF) assay for the recombinant human Syk enzyme. Format: biochemical. The conditions noted are these: GST-hSYK 5 pM, ATP 25 μM, 10-dose titration 10 μM to 0.508 nM; read-out: IC50. How it is done:
Homogeneous Time-Resolved Fluorescence (HTRF) Assay for the Recombinant Human Syk Enzyme
A recombinant GST-hSYK fusion protein was used to measure potency of compounds to inhibit human Syk activity. […] Final volume of the reaction was 10 μL. Phosphorylation of the peptide was allowed to proceed for 45 minutes at room temperature. To quench the reaction and detect the phosphorylated product, 2 nM of a Europium-anti-phosphotyrosine antibody (Perkin Elmer #AD0161) and 70 nM SA-APC (Perkin-Elmer #CR130-100) were added together in 15 mM Tris pH 7.5, 40 mM EDTA, 0.01% tween 20. Final volume of the quenching solution was 10 μL. The resulting HTRF signal was measured after 30 minutes on an EnVision (Perkin-Elmer) reader using a time-resolved fluorescence protocol.
Background: In TR-FRET formats the signal depends on donor and acceptor labels being close together.
As to `Cn1ccc(Nc2cc(N[C@H]3[C@@H](N)CCCC3(F)F)cnc2C(N)=O)n1` [Example 1.86, 5-{[(1S,6S)-6-amino-2,2-difluorocyclohexyl]amino}-3-[(1-methyl-1H-pyrazol-3-yl)amino]pyridine-2-carboxamide], the IC50 was 0.063 µM.

In the case of `CCC(CN)Nc1cnc(C(N)=O)c(Nc2ccn(C)n2)c1` (stereo not drawn) [Example 1.95, 5-{[1-(aminomethyl)propyl]amino}-3-[(1-methyl-1H-pyrazol-3-yl)amino]pyridine-2-carboxamide], the IC50 amounted to 0.12 µM.

The same experiment, now with this note: GST-hSYK 5 pM, ATP 25 μM, 10-dose titration 10 μM to 0.508 nM; read-out: rhSYK Activity (IC50 rating).
Turning to `Cn1ncc(Nc2cc(N[C@@H]3CCCC[C@@H]3N)cnc2C(N)=O)n1` [Example 1.62, 5-{[(1R,2S)-2-aminocyclohexyl]amino}-3-[(2-methyl-2H-1,2,3-triazol-4-yl)amino]pyridine-2-carboxamide], the IC50 was 0.01 to 0.1 µM.

As to `NC(=O)c1ncc(N[C@@H]2CCCC[C@@H]2N)cc1Nc1ccn(-c2ccc(Cl)cc2)n1` [Example 1.63, 5-{[(1R,2S)-2-aminocyclohexyl]amino}-3-{[1-(4-chlorophenyl)-1H-pyrazol-3-yl]amino}pyridine-2-carboxamide], the IC50 was less than 0.01 µM.

As to `Cc1ccc(-n2ccc(Nc3cc(N[C@@H]4CCCC[C@@H]4N)cnc3C(N)=O)n2)cc1` [Example 1.64, 5-{[(1R,2S)-2-aminocyclohexyl]amino}-3-{[1-(4-methylphenyl)-1H-pyrazol-3-yl]amino}pyridine-2-carboxamide], the IC50 was less than 0.01 µM.

Regarding `NC(=O)c1ncc(N[C@@H]2CCCC[C@@H]2N)cc1Nc1ccn(-c2ccc(F)cc2)n1` [Example 1.65, 5-{[(1R,2S)-2-aminocyclohexyl]amino}-3-{[1-(4-fluorophenyl)-1H-pyrazol-3-yl]amino}pyridine-2-carboxamide], the IC50 is less than 0.01 µM.

Turning to `Cc1ccc(-n2ccc(Nc3cc(N[C@@H]4CCCC[C@@H]4N)cnc3C(N)=O)n2)cc1C` [Example 1.66, 5-{[(1R,2S)-2-aminocyclohexyl]amino}-3-{[1-(3,4-dimethylphenyl)-1H-pyrazol-3-yl]amino}pyridine-2-carboxamide], the IC50 was less than 0.01 µM.

Take `Cc1nc(Nc2cc(N[C@@H]3CCCC[C@@H]3N)cnc2C(N)=O)ccc1-n1nccn1` [Example 1.67, 5-{[(1R,2S)-2-aminocyclohexyl]amino}-3-{[6-methyl-5-(2H-1,2,3-triazol-2-yl)pyridin-2-yl]amino}pyridine-2-carboxamide]: the IC50 is less than 0.01 µM.

Regarding `Cn1ncc2c(Nc3cc(N[C@@H]4CCCC[C@@H]4N)cnc3C(N)=O)nc(-c3ccccc3)nc21` [Example 1.69, 5-{[(1R,2S)-2-aminocyclohexyl]amino}-3-[(1-methyl-6-phenyl-1H-pyrazolo[3,4-d]pyrimidin-4-yl)amino]pyridine-2-carboxamide], the IC50 was less than 0.01 µM.

Regarding `CCOCC(N)CNc1cnc(C(N)=O)c(Nc2cc(C)cc(C)n2)c1` (stereo not drawn) [Example 1.70, 5-[(2-amino-3-ethoxypropyl)amino]-3-[(4,6-dimethylpyridin-2-yl)amino]pyridine-2-carboxamide], the IC50 is less than 0.01 µM.

On to `COc1ccc(-n2ccc(Nc3cc(N[C@@H]4CCCC[C@@H]4N)cnc3C(N)=O)n2)cc1` [Example 1.72, 5-{[(1R,2S)-2-aminocyclohexyl]amino}-3-{[1-(4-methoxyphenyl)-1H-pyrazol-3-yl]amino}pyridine-2-carboxamide], for which the IC50 is less than 0.01 µM.

On to `NC(=O)c1ncc(N[C@@H]2CCCC[C@@H]2N)cc1Nc1cc(Cl)cc(Cl)n1` [Example 1.73, 5-{[(1R,2S)-2-aminocyclohexyl]amino}-3-[(4,6-dichloropyridin-2-yl)amino]pyridine-2-carboxamide], for which the half-maximal inhibitory concentration (IC50) was less than 0.01 µM.

As to `Cc1nc(Nc2cc(N[C@@H]3CCCC[C@@H]3N)cnc2C(N)=O)ccc1-n1ccnn1` [Example 1.74, 5-{[(1R,2S)-2-aminocyclohexyl]amino}-3-{[6-methyl-5-(1H-1,2,3-triazol-1-yl)pyridin-2-yl]amino}pyridine-2-carboxamide], the IC50 is less than 0.01 µM.

Regarding `Cc1cc(-n2ccnn2)cc(Nc2cc(N[C@@H]3CCCC[C@@H]3N)cnc2C(N)=O)n1` [Example 1.75, 5-{[(1R,2S)-2-aminocyclohexyl]amino}-3-{[6-methyl-4-(1H-1,2,3-triazol-1-yl)pyridin-2-yl]amino}pyridine-2-carboxamide], the IC50 is less than 0.01 µM.

With `Cc1cc(-n2nccn2)cc(Nc2cc(N[C@@H]3CCCC[C@@H]3N)cnc2C(N)=O)n1` [Example 1.76, 5-{[(1R,2S)-2-aminocyclohexyl]amino}-3-{[6-methyl-4-(2H-1,2,3-triazol-2-yl)pyridin-2-yl]amino}pyridine-2-carboxamide], the IC50 is less than 0.01 µM.

Consider `Cc1cc(N2CCOCC2)cc(Nc2cc(N[C@@H]3CCCC[C@@H]3N)cnc2C(N)=O)n1` [Example 1.77, 5-{[(1R,2S)-2-aminocyclohexyl]amino}-3-[(6-methyl-4-morpholin-4-ylpyridin-2-yl)amino]pyridine-2-carboxamide], for which the concentration for half-maximal inhibition (IC50) is less than 0.01 µM.

As for `Cc1ccc(-n2nc(Nc3cc(N[C@@H]4CCCC[C@@H]4N)cnc3C(N)=O)cc2C)cc1` [Example 1.79, 5-{[(1R,2S)-2-aminocyclohexyl]amino}-3-{[5-methyl-1-(4-methylphenyl)-1H-pyrazol-3-yl]amino}pyridine-2-carboxamide], the IC50 is less than 0.01 µM.

As for `Cc1cccc(-n2ccc(Nc3cc(N[C@@H]4CCCC[C@@H]4N)cnc3C(N)=O)n2)c1` [Example 1.80, 5-{[(1R,2S)-2-aminocyclohexyl]amino}-3-{[1-(3-methylphenyl)-1H-pyrazol-3-yl]amino}pyridine-2-carboxamide], the concentration for half-maximal inhibition (IC50) is less than 0.01 µM.

`NC(=O)c1ncc(N[C@@H]2CCCC[C@@H]2N)cc1Nc1ccn(-c2ccccn2)n1` [Example 1.81, 5-{[(1R,2S)-2-aminocyclohexyl]amino}-3-[(1-pyridin-2-yl-1H-pyrazol-3-yl)amino]pyridine-2-carboxamide]: the IC50 was less than 0.01 µM.

`COC[C@H](N)CNc1cnc(C(N)=O)c(Nc2cccc(-n3nccn3)n2)c1` [Example 1.82, 5-{[(2R)-2-amino-3-methoxypropyl]amino}-3-{[6-(2H-1,2,3-triazol-2-yl)pyridin-2-yl]amino}pyridine-2-carboxamide]: the IC50 is less than 0.01 µM.

For the compound `NC(=O)c1ncc(N[C@H]2[C@@H](N)CCCC2(F)F)cc1Nc1cccc(-n2nccn2)n1` [Example 1.83, 5-{[(1S,6S)-6-amino-2,2-difluorocyclohexyl]amino}-3-{[6-(2H-1,2,3-triazol-2-yl)pyridin-2-yl]amino}pyridine-2-carboxamide], the IC50 is less than 0.01 µM.

On to `CCC(CN)Nc1cnc(C(N)=O)c(Nc2cccc(-n3nccn3)n2)c1` (stereo not drawn) [Example 1.85, 5-{[1-(aminomethyl)propyl]amino}-3-{[6-(2H-1,2,3-triazol-2-yl)pyridin-2-yl]amino}pyridine-2-carboxanmle], for which the IC50 is less than 0.01 µM.

`Cn1ccc(Nc2cc(N[C@H]3[C@@H](N)CCCC3(F)F)cnc2C(N)=O)n1` [Example 1.86, 5-{[(1S,6S)-6-amino-2,2-difluorocyclohexyl]amino}-3-[(1-methyl-1H-pyrazol-3-yl)amino]pyridine-2-carboxamide]: the IC50 fell in the range of 0.01 to 0.1 µM.

As for `NC(=O)c1ncc(N[C@H]2[C@@H](N)CCCC2(F)F)cc1Nc1ccn(-c2ccc(F)cc2)n1` [Example 1.87, 5-{[(1S,6S)-6-amino-2,2-difluorocyclohexyl]amino}-3-{[1-(4-fluorophenyl)-1H-pyrazol-3-yl]amino}pyridine-2-carboxamide], the IC50 was less than 0.01 µM.

Consider `CCc1cccc(Nc2cc(N[C@H]3[C@@H](N)CCCC3(F)F)cnc2C(N)=O)n1` [Example 1.88, 5-{[(1S,6S)-6-amino-2,2-difluorocyclohexyl]amino}-3-[(6-ethylpyridin-2-yl)amino]pyridine-2-carboxamide], for which the IC50 is less than 0.01 µM.

Regarding `C[C@H](N)CNc1cnc(C(N)=O)c(Nc2ccn(C)n2)c1` [Example 1.92, 5-{[(2S)-2-aminopropyl]amino}-3-[(1-methyl-1H-pyrazol-3-yl)amino]pyridine-2-carboxamide], the IC50 fell in the range of 0.01 to 0.1 µM.

With `C[C@H](N)CNc1cnc(C(N)=O)c(Nc2ccn(-c3ccc(F)cc3)n2)c1` [Example 1.93, 5-{[(2S)-2-aminopropyl]amino}-3-{[1-(4-fluorophenyl)-1H-pyrazol-3-yl]amino}pyridine-2-carboxamide], the half-maximal inhibitory concentration (IC50) was less than 0.01 µM.

Regarding `CCc1cccc(Nc2cc(NC[C@H](C)N)cnc2C(N)=O)n1` [Example 1.94, 5-{[(2S)-2-aminopropyl]amino}-3-[(6-ethylpyridin-2-yl)amino]pyridine-2-carboxamide], the IC50 was less than 0.01 µM.

With `CCC(CN)Nc1cnc(C(N)=O)c(Nc2ccn(C)n2)c1` (stereo not drawn) [Example 1.95, 5-{[1-(aminomethyl)propyl]amino}-3-[(1-methyl-1H-pyrazol-3-yl)amino]pyridine-2-carboxamide], the 50% inhibitory concentration (IC50) is 0.1 to 1 µM.

As to `CCC(CN)Nc1cnc(C(N)=O)c(Nc2ccn(-c3ccc(F)cc3)n2)c1` (stereo not drawn) [Example 1.96, 5-{[1-(aminomethyl)propyl]amino}-3-{[1-(4-fluorophenyl)-1H-pyrazol-3-yl]amino}pyridine-2-carboxamide], the IC50 was less than 0.01 µM.

Consider `CCc1cccc(Nc2cc(NC(CC)CN)cnc2C(N)=O)n1` (stereo not drawn) [Example 1.97, 5-{[1-(aminomethyl)propyl]amino}-3-[(6-ethylpyridin-2-yl)amino]pyridine-2-carboxamide], for which the IC50 is less than 0.01 µM.

With `COC[C@H](N)CNc1cnc(C(N)=O)c(Nc2ccn(C)n2)c1` [Example 1.98, 5-{[(2R)-2-amino-3-methoxypropyl]amino}-3-[(1-methyl-1H-pyrazol-3-yl)amino]pyridine-2-carboxamide], the half-inhibitory concentration (IC50) is 0.1 to 1 µM.

Take `COC[C@H](N)CNc1cnc(C(N)=O)c(Nc2ccn(-c3ccc(F)cc3)n2)c1` [Example 1.99, 5-{[(2R)-2-amino-3-methoxypropyl]amino}-3-{[1-(4-fluorophenyl)-1H-pyrazol-3-yl]amino}pyridine-2-carboxamide]: the IC50 is less than 0.01 µM.
